Laboratory results: PMC4731787, “Structural basis for the recognition of two consecutive mutually interacting DPF motifs by the SGIP1 μ homology domain” (Scientific Reports, 2016)

Columns and labels:
[1] = target: T1, SGIP1 μHD (residues 552 to 828) (Homo sapiens, UniProt Q9BQI5); experiment: ITC of Eps15 fragments with the SGIP1 μHD; format: binding; details: for -TΔS / ΔG / ΔH: 25 °C; for -TΔS / ΔG / ΔH / N (binding ratio of Eps15 fragment to μHD): μHD in cell titrated with fragment, single-site model; for ΔH / N (binding ratio of Eps15 fragment to μHD): ± 68.3% confidence interval
T1 construct: the SGIP1 μHD (residues 552 to 828); GST (N, cleaved yes); made in house; host or cells: Escherichia coli BL21-Gold (DE3) or Rosetta2
T1 sequence (Q9BQI5 552-828): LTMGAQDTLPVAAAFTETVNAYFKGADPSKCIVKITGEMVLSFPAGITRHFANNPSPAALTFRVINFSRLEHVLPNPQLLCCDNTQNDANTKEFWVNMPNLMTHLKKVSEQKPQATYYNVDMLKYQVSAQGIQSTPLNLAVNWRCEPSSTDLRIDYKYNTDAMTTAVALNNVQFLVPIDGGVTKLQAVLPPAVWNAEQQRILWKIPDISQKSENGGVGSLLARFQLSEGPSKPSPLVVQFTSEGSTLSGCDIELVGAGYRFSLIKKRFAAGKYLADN
Summary of the method: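 Isothermal titration calorimetry was run at 25 °C in 50 mM Tris-HCl pH 8.0, 50 mM NaCl, mostly titrating Eps15 fragments or peptides into μHD protein in the cell (25 injections, 4 min apart). Some runs reversed the titration direction. Duplicate runs were globally fitted to single- or two-site models, with N derived from incompetent-fraction parameters.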

SGIP1 µHD K816E = target: T2, SGIP1 µHD K816E (Homo sapiens, UniProt Q9BQI5, K816E); experiment: ITC of Eps15 fragments with the SGIP1 μHD K816E mutant; format: binding
T2 construct: the SGIP1 μHD (residues 552 to 828); GST (N, cleaved yes); made in house; host or cells: Escherichia coli (as for the wild-type μHD)
T2 sequence (Q9BQI5 552-828 K816E): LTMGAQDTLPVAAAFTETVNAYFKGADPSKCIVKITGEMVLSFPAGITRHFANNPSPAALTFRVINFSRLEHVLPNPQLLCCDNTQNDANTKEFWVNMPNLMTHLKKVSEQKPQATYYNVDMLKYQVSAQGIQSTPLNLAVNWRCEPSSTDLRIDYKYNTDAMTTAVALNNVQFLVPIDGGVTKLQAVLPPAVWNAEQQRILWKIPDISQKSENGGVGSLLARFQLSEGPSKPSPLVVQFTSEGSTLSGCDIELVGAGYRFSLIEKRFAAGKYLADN
Procedure: (§1) For the majority of the ITC experiments, the SGIP1 μHD, its mutants, or the FCHo1 μHD, in 50 mM Tris-HCl buffer (pH 8.0) containing 50 mM NaCl, was loaded in the sample cell, in a volume of 1.42 ml, and titrated with various Eps15-derived fragments or peptides in the same buffer, with an initial 5 μl injection and subsequent 10 μl injections, for a total of 25 injections. The titrations were performed while the samples were stirred at 310 r.p.m. at 25 °C. Each injection was followed by an interval of 4 min, to allow baseline stabilization. For the other ITC experiments indicated in Supplementary Table 2, the Eps15-derived fragments or peptides in the sample cell were titrated with the SGIP1 or FCHo1 μHD. All ITC experiments were performed on a VP-ITC microcalorimeter (MicroCal, LLC) and repeated twice, and the data were processed with the program NITPIC[42]. The two data sets from each ITC experiment were analyzed by global weighted least-squares fitting with the program SEDPHAT[43]. Figures for the ITC data were created with the program GUSSI (http://biophysics.swmed.edu/MBR/software.html). To obtain the values of the traditional stoichiometric parameter N in our ITC data analyses (Supplementary Table 2), we used the values of the parameters of the incompetent fractions of proteins and ligands. […]

[2] = target: T3, FCHo1 µHD (residues 623 to 889) (Homo sapiens, UniProt O14526); experiment: ITC of Eps15 fragments with the FCHo1 μHD; format: binding; details: FCHo1 μHD in cell titrated with fragment, single-site model
T3 construct: GST (N, cleaved yes); made in house; host or cells: Escherichia coli (as for the SGIP1 μHD)
T3 sequence (O14526 623-889): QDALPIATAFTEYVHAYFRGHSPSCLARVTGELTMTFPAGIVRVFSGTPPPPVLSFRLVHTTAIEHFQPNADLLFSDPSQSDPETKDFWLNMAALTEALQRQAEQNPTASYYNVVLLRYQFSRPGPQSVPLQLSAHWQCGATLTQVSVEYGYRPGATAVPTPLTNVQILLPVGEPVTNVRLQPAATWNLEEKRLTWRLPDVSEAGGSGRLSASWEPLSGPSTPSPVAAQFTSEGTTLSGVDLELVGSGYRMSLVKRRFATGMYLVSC
Procedure: For the majority of the ITC experiments, the SGIP1 μHD, its mutants, or the FCHo1 μHD, in 50 mM Tris-HCl buffer (pH 8.0) containing 50 mM NaCl, was loaded in the sample cell, in a volume of 1.42 ml, and titrated with various Eps15-derived fragments or peptides in the same buffer, with an initial 5 μl injection and subsequent 10 μl injections, for a total of 25 injections. The titrations were performed while the samples were stirred at 310 r.p.m. at 25 °C. Each injection was followed by an interval of 4 min, to allow baseline stabilization. For the other ITC experiments indicated in Supplementary Table 2, the Eps15-derived fragments or peptides in the sample cell were titrated with the SGIP1 or FCHo1 μHD. All ITC experiments were performed on a VP-ITC microcalorimeter (MicroCal, LLC) and repeated twice, and the data were processed with the program NITPIC[42]. The two data sets from each ITC experiment were analyzed by global weighted least-squares fitting with the program SEDPHAT[43]. Figures for the ITC data were created with the program GUSSI (http://biophysics.swmed.edu/MBR/software.html). To obtain the values of the traditional stoichiometric parameter N in our ITC data analyses (Supplementary Table 2), we used the values of the parameters of the incompetent fractions of proteins and ligands. […] The values of the incompetent fractions are between 0 and 1, whereas the other parameter affecting the traditional parameter N, the number of sites, was fixed as 1 and 2, for the single- and two-site models, respectively. Thus, in the two-site model, the values of N for the first and second sites are identical in our ITC data analyses (Supplementary Table 2).

SGIP1 µHD N670D = target: T4, SGIP1 µHD N670D (Homo sapiens, UniProt Q9BQI5, N670D); experiment: ITC of Eps15 fragments with the SGIP1 μHD N670D mutant; format: binding
T4 construct: the SGIP1 μHD (residues 552 to 828); GST (N, cleaved yes); made in house; host or cells: Escherichia coli (as for the wild-type μHD)
T4 sequence (Q9BQI5 552-828 N670D): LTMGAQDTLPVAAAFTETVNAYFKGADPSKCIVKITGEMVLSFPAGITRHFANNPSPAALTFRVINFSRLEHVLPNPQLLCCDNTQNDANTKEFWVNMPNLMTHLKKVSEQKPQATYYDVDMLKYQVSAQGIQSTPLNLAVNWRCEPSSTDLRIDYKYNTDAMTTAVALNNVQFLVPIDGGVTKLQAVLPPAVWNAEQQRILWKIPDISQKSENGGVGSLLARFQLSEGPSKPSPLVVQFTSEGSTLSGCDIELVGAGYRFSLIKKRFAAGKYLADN
Procedure: as §1

human full-length FCHo1 = details: pull-down assay; lower than the other longer fragments with more DPF motifs tested in the same reference; ref Umasankar et al.23; cited from earlier work
Text: page 12: Supplementary Table 3 Regions of Eps15, Eps15R, and Dab2, involved in binding to the µHDs of SGIP1/ SGIP1α/FCHo1/FCHo2 from various sources. µHD-containing protein µHD-binding Region involved in binding Number of DPF motifs Method used to confirm binding Strength of Reference protein to the µHD in the binding region affinity mouse SGIP1 µHD (aa501–807) Eps15 a residues 594–896 15 b pull-down assay (competition) unknown Reider et al. 8 mouse SGIP1α µHD (aa561–854) rat Eps15 residues 593–894 15 pull-down assay unknown Uezu et al.19 mouse SGIP1α µHD (aa428–854) rat Eps15 residues 636–747 ...

[3] = 25 °C, 50 mM Tris-HCl pH 8.0, 50 mM NaCl, mutant μHD in cell titrated with fragment, two runs

Ac-YDPFGGDPFKGSDPFA-NH2 [Eps15-640–654]
binding to the SGIP1 μHD (in words) [1]: slightly stronger affinity than Eps15-622–637 | -TΔS [1]: 3.482 kcal/mol | ΔG [1]: -7.559 kcal/mol | ΔH [1]: -11.041 ± 0.191 kcal/mol | N (binding ratio of Eps15 fragment to μHD) [1]: 0.66 ± 0.01 | binding to SGIP1 μHD with Lys816 replaced by Glu (in words) (SGIP1 µHD K816E): abolished the binding | Kd (SGIP1 µHD K816E; [3]): below detection limit | Kd ([2]; 25 °C, 50 mM Tris-HCl pH 8.0, 50 mM NaCl, global fit of two runs, ± 68.3% confidence interval): 5.5 ± 1.4 µM | -TΔS ([2]; 25 °C): 0.748 kcal/mol | ΔG ([2]; 25 °C): -7.175 kcal/mol | ΔH ([2]; 25 °C, ± 68.3% confidence interval): -7.923 ± 1.098 kcal/mol | N (binding ratio of Eps15 fragment to FCHo1 μHD) ([2]; ± 68.3% confidence interval): 0.64 ± 0.06

Ac-YDPFGGDPFKG-NH2 [Eps15-640–649]
-TΔS [1]: 2.106 kcal/mol | ΔG [1]: -6.166 kcal/mol | ΔH [1]: -8.272 ± 0.679 kcal/mol | N (binding ratio of Eps15 fragment to μHD) [1]: 0.66 ± 0.03 | binding to SGIP1 μHD with Asn670 replaced by Asp (in words) (SGIP1 µHD N670D): abolished the binding | Kd (SGIP1 µHD N670D; [3]): below detection limit

Eps15 residues 595–636: Eps15 region of a previous report, first DPF motifs of the high-affinity site, source assumed human (SKEEDPFNVDSSSLTGPVADTNLDFFQSDPFVGSDPFKDDPF; UniProt P42566 595-636, looked up, fragment)
Strength of affinity (human full-length FCHo1): low
